According to the supplement of paper PMC11451515:

How the values were obtained:
Experiment in all cases: AUC of viability dose-response curve (% viability x log10 dose units); higher = less sensitive
Conditions in all cases: 48 h
NOMO1 = test system: NOMO1
Summary of the method: (§1)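 Medium-adapted leukemia cells in 1536-well plates, at 500 or 1000 cells/well, were incubated for 48 h at 37°C with library compounds in DMSO at 11 threefold doses from 47 μM to 0.79 nM. CellTiter-Glo One luminescence normalised per plate to DMSO and cell-free wells was fitted with a four-parameter log-logistic model over log10 doses. Area under the curve was integrated from this fit by trapezoidal rule, with curves beyond full viability scaled and failed quality-control curves removed.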

P12-Ichikawa = test system: P12-Ichikawa
Summary of the method: as §1

SEM cells = test system: SEM cells
Summary of the method: as §1

[1] = RPMI 5 mM glucose + 10% dialyzed FBS

Compound	AUC of viability dose-response curve (NOMO1; HPLM + 10% dialyzed FBS)	AUC of viability dose-response curve (NOMO1; RPMI 5 mM glucose + 10% FBS)	AUC of viability dose-response curve (NOMO1; [1])	AUC of viability dose-response curve (P12-Ichikawa; HPLM + 10% dialyzed FBS)	AUC of viability dose-response curve (P12-Ichikawa; RPMI 5 mM glucose + 10% FBS)	AUC of viability dose-response curve (P12-Ichikawa; [1])	AUC of viability dose-response curve (SEM cells; HPLM + 10% dialyzed FBS)	AUC of viability dose-response curve (SEM cells; RPMI 5 mM glucose + 10% FBS)	AUC of viability dose-response curve (SEM cells; [1])
COC(=O)Nc1ccc(-c2nc(N3CCOCC3)c3cnn(C4CCN(Cc5cccnc5)CC4)c3n2)cc1	298	361	319	355	323	314	292	242	249
O=C(C1CC1)N1CC[C@@H](Cn2c(-c3ccc(-c4ccc5occc5c4)cc3)nc3cnccc32)C1	469	456	468	461	470	469	457	465	462
O=C1CCC[C@@H]2[C@H]3CCC[N+]4([O-])CCC[C@@H](CN12)[C@@H]34 (some centres undefined)	364	374	369	463	435	422	373	406	398
CCCOc1ccc2[nH]c(NC(=O)OC)nc2c1	286	259	273	226	217	257	240	169	199
CO[C@@H]1[C@@H](OC(N)=O)[C@@H](O)[C@H](OC2=CC=C3\C(=C(NC(=O)C4=CC=C([O-])C(=C4)CC=C(C)C)/C(=O)OC3=C2C)O)OC1(C)C	437	451	437	449	465	464	476	445	461
CCOC(CN1C(=O)[C@](CC(=O)Nc2ccc(C)cc2)(NC(=O)Nc2ccc(C)cc2)c2ccccc21)OCC	448	460	458	458	461	460	447	437	466
Clc1ccccc1C(c1ccccc1)(c1ccccc1)n1cccn1	454	445	457	470	462	470	467	456	425
O=C(O)CSCC(=O)NC1CCSC1=O (centres undefined)	471	476	476	466	469	463	451	456	464
Nc1nc(Nc2ccc([S+](N)(=O)[O-])cc2)nn1C(=O)c1c(F)cccc1F	437	410	402	455	435	439	397	407	399
C[C@]12CC[C@@H]3c4ccc(O)cc4CC[C@H]3[C@@H]1CC[C@@H]2O	435	453	450	446	455	440	441	434	431
CN1CC/C(CC1)=C3\c4ccccc4CC(=O)c2sccc23	462	463	463	472	467	470	460	472	473
CCc1ccc(C(=O)Nc2cc(CN3CCN(C)CC3)cc(C(F)(F)F)c2)cc1C#Cc1cnc2ccnn2c1	459	460	477	459	454	415	449	453	451
C[N]1N=CC2=C1C=C(C(=C2)OC3=CC=C(NC(=O)\C4=C\C=C(\C)N(C4=O)C5=CC=C(F)C=C5)C=C3F)C6=C[NH]N=C6	401	410	413	396	397	404	268	266	255
NCCCCCC(=O)O	469	459	447	463	469	463	398	459	389
COc1cc(Nc2ncc(F)c(Nc3ccc4c(n3)N(COP(=O)(O)O)C(=O)C(C)(C)O4)n2)cc(OC)c1OC	472	453	438	470	456	457	287	292	245
C=CCc1cc(OC)c(O)c(C(=O)NCCO)c1	449	462	446	457	460	466	448	442	454
O=C(O)c1ccc(-c2c[nH]c3ncc(-c4ccccc4)cc23)cc1C1CCCC1	466	471	468	458	453	450	435	404	400
O=C([O-])[C@H](CC(=O)N1C[C@H]2CCCC[C@H]2C1)Cc1ccccc1	465	440	448	445	442	471	395	418	374
O=[S+]([O-])(CCSSCC[S+](=O)([O-])[O][Na])[O][Na]	432	428	450	461	451	472	423	457	438
C[C@H]1[C@H](O)O[C@@H]2O[C@@]3(C)CC[C@H]4[C@H](C)CC[C@@H]1[C@@]24OO3	321	316	341	386	340	333	374	348	324
CC[C@H](NC(C)C)[C@H](O)c1ccc(O)c2[nH]c(=O)ccc12	470	447	463	451	462	456	442	472	474
CCCCCCCCOc1ccccc1C(=O)Nc1ccc(C(=O)OCC[N+](C)(CC)CC)cc1	446	401	413	437	444	408	435	414	460
NC/1=N/C(=O)N(C[C@@H](CO)OC[P](O)(O)=O)/C=C1	421	460	475	458	443	460	455	466	439
COc1ccccc1OCCNCC(O)COc1cccc2[nH]c3ccccc3c12 (centres undefined)	476	465	474	461	468	468	467	463	467
COC1=CC(=CC=C1)C2=CC=C(NC(=O)/C3=C(/CCC3)C(O)=O)C(=C2)F	428	469	457	444	436	431	465	461	447
OC(CCN1CCCCC1)(C2CC\3CC2\C=C3)C4=CC=CC=C4 (centres undefined)	465	475	453	463	470	455	442	440	439
